One experiment has as its target T1, C-RAF (Homo sapiens, UniProt P04049, Y340E/Y341E).
T1 construct: His tag (implied by nickel chromatography) (cleaved yes); StrepII tag (cleaved yes); made in house; host or cells: Sf9 insect cells (baculovirus), CRAF and h14-3-3 zeta co-expressed; MEK1 substrate from E. coli
Nature of the experiment: In vitro Raf activity determination (Alpha Screen, biotinylated kinase-dead MEK1 substrate), C-Raf. The format is biochemical. Conditions: c-Raf approximately 4 nM; ATP 1 μM; pre-incubation 60 minutes; reaction 1 hour at room temperature. The procedure, abridged: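 Full-length C-Raf carrying Y340E/Y341E, co-expressed with 14-3-3ζ in Sf9 cells, at approximately 4 nM, with approximately 10 nM biotinylated kinase-dead MEK1 (K97R) and 1 μM ATP, pH 7.5. Compound preincubated 60 min, reaction 1 hour at room temperature. Phospho-MEK read by AlphaScreen; IC50 by non-linear regression.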

The target in a further experiment is T2, b-Raf (V600E) (Homo sapiens, UniProt P15056, V600E).
T2 construct: made in house
Kind of experiment: In vitro Raf activity determination (Alpha Screen, biotinylated kinase-dead MEK1 substrate), B-Raf. In kind it is biochemical. Conditions: b-Raf (V600E) approximately 4 pM; ATP 10 μM; pre-incubation 60 minutes; reaction 3 hours at room temperature. The gist of the method:
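Activated b-Raf(V600E) (~4 pM) pre-incubated 60 min with compound and biotinylated kinase-dead (K97R) MEK1 (~10 nM), then reacted 3 h at room temperature with 10 μM ATP in 50 mM Tris pH 7.5, 15 mM MgCl2, 0.01% BSA, 1 mM DTT. Phospho-MEK detected by AlphaScreen; IC50 by non-linear regression.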

The structures appear in SMILES notation.

This is an account of results in US10392404B2, “Compounds and compositions as kinase inhibitors” (NOVARTIS AG, priority 2014, dated 2019).

T2 sequence (P15056 whole entry V600E): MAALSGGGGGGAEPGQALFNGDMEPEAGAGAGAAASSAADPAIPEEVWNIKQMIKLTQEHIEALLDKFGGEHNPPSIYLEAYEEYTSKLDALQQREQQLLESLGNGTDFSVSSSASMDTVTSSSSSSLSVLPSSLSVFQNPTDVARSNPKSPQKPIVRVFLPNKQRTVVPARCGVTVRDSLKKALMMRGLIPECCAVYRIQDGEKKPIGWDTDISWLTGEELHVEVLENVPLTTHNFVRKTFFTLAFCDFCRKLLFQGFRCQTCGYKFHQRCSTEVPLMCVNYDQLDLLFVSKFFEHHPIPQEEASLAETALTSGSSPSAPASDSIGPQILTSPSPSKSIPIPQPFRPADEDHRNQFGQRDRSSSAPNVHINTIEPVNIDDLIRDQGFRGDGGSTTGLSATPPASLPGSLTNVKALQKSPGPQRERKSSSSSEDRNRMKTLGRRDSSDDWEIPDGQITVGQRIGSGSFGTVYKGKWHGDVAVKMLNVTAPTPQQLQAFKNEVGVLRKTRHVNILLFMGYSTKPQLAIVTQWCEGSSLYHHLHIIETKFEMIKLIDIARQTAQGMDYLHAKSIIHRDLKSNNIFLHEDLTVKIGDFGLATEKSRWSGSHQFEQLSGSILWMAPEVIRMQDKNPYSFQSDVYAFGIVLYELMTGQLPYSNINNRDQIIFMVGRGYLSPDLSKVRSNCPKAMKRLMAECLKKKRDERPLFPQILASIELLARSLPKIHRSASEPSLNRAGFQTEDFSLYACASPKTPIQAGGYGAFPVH
T1 sequence (P04049 whole entry Y340E/Y341E): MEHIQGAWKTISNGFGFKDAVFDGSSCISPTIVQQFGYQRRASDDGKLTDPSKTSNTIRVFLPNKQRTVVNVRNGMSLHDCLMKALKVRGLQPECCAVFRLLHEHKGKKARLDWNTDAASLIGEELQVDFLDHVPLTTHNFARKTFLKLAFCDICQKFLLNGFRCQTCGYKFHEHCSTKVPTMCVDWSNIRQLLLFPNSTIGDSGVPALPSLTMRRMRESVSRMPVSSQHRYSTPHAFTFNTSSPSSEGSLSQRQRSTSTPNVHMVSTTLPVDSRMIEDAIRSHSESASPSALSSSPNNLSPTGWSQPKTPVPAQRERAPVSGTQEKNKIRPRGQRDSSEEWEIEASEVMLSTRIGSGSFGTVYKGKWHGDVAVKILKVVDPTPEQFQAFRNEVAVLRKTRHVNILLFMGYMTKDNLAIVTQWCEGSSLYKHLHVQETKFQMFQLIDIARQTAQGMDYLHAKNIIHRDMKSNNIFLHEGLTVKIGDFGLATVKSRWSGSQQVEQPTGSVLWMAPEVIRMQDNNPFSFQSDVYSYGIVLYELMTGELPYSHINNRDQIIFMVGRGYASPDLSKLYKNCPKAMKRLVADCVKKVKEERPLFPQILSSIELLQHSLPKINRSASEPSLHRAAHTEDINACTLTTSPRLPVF
T1 sequence (P63104 whole entry partner): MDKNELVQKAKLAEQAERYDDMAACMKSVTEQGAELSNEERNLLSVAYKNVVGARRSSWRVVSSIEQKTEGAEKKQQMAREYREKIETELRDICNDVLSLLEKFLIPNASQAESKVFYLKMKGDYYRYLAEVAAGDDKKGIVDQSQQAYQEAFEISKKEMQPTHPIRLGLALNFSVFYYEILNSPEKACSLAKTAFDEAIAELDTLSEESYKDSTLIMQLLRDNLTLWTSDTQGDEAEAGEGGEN

One may read the IC50 as the concentration at which inhibition is half-maximal. Read a low IC50 as higher potency. In the case of `Cc1ccc(NC(=O)c2ccnc(C3CC3)c2)cc1-c1cnc(N2CCNCC2)c(C#N)c1` [Example 158, N-(3-(5-cyano-6-(piperazin-1-yl)pyridin-3-yl)-4-methylphenyl)-2-cyclopropyl isonicotinamide], the IC50 against C-RAF came to 0.199 nM; against b-Raf (V600E), 1.09 nM.
The like results for `Cc1ccc(NC(=O)c2ccnc(C(C)(C)F)c2)cc1-c1cnc(N2CCNCC2)c(C#N)c1` [Example 164, N-(3-(5-cyano-6-(piperazin-1-yl)pyridin-3-yl)-4-methylphenyl)-2-(2-fluoropropan-2-yl)isonicotinamide] were, in that order, 0.222 nM and 0.683 nM.
Turning to `Cc1ncc(NC(=O)c2cc(C(F)(F)F)ccn2)cc1-c1cnc(N2CCOCC2)c(C#N)c1` [Example 223, N-(5′-cyano-2-methyl-6′-morpholino-[3,3′-bipyridin]-5-yl)-4-(trifluoromethyl) picolinamide], the values for the IC50 against C-RAF and at b-Raf (V600E) were 0.304 nM and 1 nM, respectively.
Taken in the same sequence, the figures for `COCCNc1ncc(-c2cc(NC(=O)c3cnnc(C(F)(F)F)c3)ccc2C)cc1C#N` [Example 179, N-(3-(5-cyano-6-((2-methoxyethyl)amino)pyridin-3-yl)-4-methylphenyl)-6-(trifluoromethyl) pyridazine-4-carboxamide] were 0.588 nM and 4.11 nM.
The like results for `Cc1ncc(NC(=O)c2ccnc(C(C)(C)C#N)c2)cc1-c1cnc(-n2ccccc2=O)c(C#N)c1` [Example 53, N-(3′-cyano-2″- methyl-2-oxo-2H-[1,2′:5′,3″- terpyridin]-5″-yl)-2 (2-cyanopropan-2-yl)isonicotinamide] were, in that order, 64 nM and 285 nM.
The like results for `Cc1ccc(NC(=O)c2ccnc(C(F)(F)F)c2)cc1-c1cnc(NC2CC2)c(C#N)c1` [Example 21, N-(3-(5-cyano-6-(cyclopropylamino)pyridin-3-yl)-4-methylphenyl)-2-(trifluoromethyl) isonicotinamide] were, in that order, 0.103 nM and 0.575 nM.
Consider `Cc1ncc(NC(=O)c2ccnc(C(C)(C)C#N)c2)cc1-c1cnc(-c2cccnc2)c(C#N)c1` [Example 108, N-(3′-cyano-2″- methyl-[3,2′:5′,3″- terpyridin]-5″-yl)-2-(2-cyanopropan-2-yl)isonicotinamide], for which the figures for the IC50 on C-RAF and at b-Raf (V600E) were 2.66 nM and 13.7 nM, respectively.
Taken in the same sequence, the figures for `Cc1ncc(NC(=O)c2ccnc(C3(C#N)CC3)c2)cc1-c1cnc(N2CC(C)(O)C2)c(C#N)c1` [Example 189, N-(5′-cyano-6′-(3-hydroxy-3-methylazetidin-1-yl)-2-methyl-[3,3′-bipyridin]-5-yl)-2-(1-cyanocyclopropyl) isonicotinamide] were 0.39 nM and 3.41 nM.
For the compound `Cc1ncc(NC(=O)c2cccc(S(C)(=O)=O)c2)cc1-c1cnc(N2CC(C)(O)C2)c(C#N)c1` [Example 187, N-(5′-cyano-6′-(3-hydroxy-3-methylazetidin-1-yl)-2-methyl-[3,3′-bipyridin]-5-yl)-3-(methylsulfonyl) benzamide], the IC50 against C-RAF worked out at 4.2 nM; against b-Raf (V600E), 26.6 nM.
For the compound `Cc1ncc(NC(=O)c2ccnc(C(C)(C)C#N)c2)cc1-c1cnc(OCCO)c(C#N)c1` [Example 98, N-(5′-cyano-6′-(2-hydroxyethoxy)-2-methyl-[3,3′-bipyridin]-5-yl)-2-(2-cyanopropan-2-yl)isonicotinamide], the IC50 against C-RAF stood at 9.21 nM; against b-Raf (V600E) it was 74.3 nM.
The like results for `CCn1cc(C(=O)Nc2cnc(C)c(-c3cnc(N4CCOCC4)c(C#N)c3)c2)cc(C(F)(F)F)c1=O` [Example 135, N-(5′-cyano-2-methyl-6′-morpholino-[3,3′-bipyridin]-5-yl)-1-ethyl-6-oxo-5-(trifluoromethyl)-1,6-dihydropyridine-3-carboxamide] were, in that order, 0.969 nM and 4.79 nM.
Turning to `CCNc1ncc(-c2cc(NC(=O)c3cccc(C(F)(F)F)c3)ccc2C)cc1C#N` [Example 23, N-(3-(5-cyano-6-(ethylamino)pyridin-3-yl)-4-methylphenyl)-3-(trifluoromethyl) benzamide], the half-maximal inhibitory concentration (IC50) turned out to be 0.247 nM against C-RAF and 1.46 nM against b-Raf (V600E).
